Data: PubChem BioAssay AID1259411 (Chemical Carcinogenesis Research Information System (CCRIS), 2018)
Activity calls are given as the source filed them. No rule for the calls is given here.

Test system: rodent carcinogenicity bioassays, tumor incidence
Experiment: CCRIS carcinogenicity studies
How it was run: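 Archive of carcinogenicity, mutagenicity, tumor promotion and tumor inhibition results drawn from journals, NCI reports and other sources, expert-reviewed; covers 1985-2011 and is no longer updated.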

With `C/[N+]([O-])=N/CO` the carcinogen call (Species: HAMSTER, Strain/Sex: SYRIAN/MALE,FEMALE, Route: INTRAVENOUS, Dose: 10 MG/KG BW, 4-5 INJ, Tumor Site: Type of Lesion: LIVER: CYSTADENOMA AND CYSTIC LESIONS, VASCULAR TUMOR, HEPATOCELLULAR CARCINOMA, INTESTINES (LARGE): ADENOMA, ADENOCARCI) was “active; positive”, the carcinogen call (Species: HAMSTER, Strain/Sex: SYRIAN/MALE,FEMALE, Route: INTRAVENOUS, Dose: 15 MG/KG BW, 4-5 INJ, Tumor Site: Type of Lesion: LIVER: CYSTADENOMA AND CYSTIC LESIONS, VASCULAR TUMOR, HEPATOCELLULAR CARCINOMA, INTESTINES (LARGE): ADENOMA, ADENOCARCI) was “active; positive” and the carcinogen call (Species: HAMSTER, Strain/Sex: SYRIAN/MALE,FEMALE, Route: INTRAVENOUS, Dose: 20 MG/KG BW, 3 INJ, Tumor Site: Type of Lesion: LIVER: CYSTADENOMA AND CYSTIC LESIONS, GALL BLADDER: ADENOCARCINOMA, INTESTINES (LARGE): ADENOCARCINOMA, Tumor Site: Type of Lesion: LIVER: CYSTADENOMA AND CYSTIC LESIONS, GALL BLADDER: ADENOCARCINOMA, INTESTINES (LARGE): ADENOCARCINOMA) was “active; positive”. The carcinogen call (Species: HAMSTER, Strain/Sex: SYRIAN/MALE,FEMALE, Route: INTRAVENOUS, Dose: 20 MG/KG BW, SINGLE DOSE, Tumor Site: Type of Lesion: LIVER: ADENOCARCINOMA, HEPATOCELLULAR CARCINOMA, VASCULAR TUMOR, CYSTADENOMA AND CYSTIC LESIONS, INTESTINES (LARGE): ADE) was “active; positive”, the carcinogen call (Species: RAT, Strain/Sex: SPRAGUE-DAWLEY/MALE, Route: INTRAVENOUS, Dose: 25 MG/KG 1/WK FOR 5 WK, Tumor Site: Type of Lesion: INTESTINES (JEJUNUM OR ILEUM), INTESTINES (COLON OR RECTUM), CECUM, DUODENUM, Tumor Site: Type of Lesion: INTESTINES (JEJUNUM OR ILEUM), INTESTINES (COLON OR RECTUM), CECUM, DUODENUM) was “active; positive” and the carcinogen call (Species: RAT, Strain/Sex: SPRAGUE-DAWLEY/MALE, Route: INTRAVENOUS, Dose: 25 MG/KG 1/WK FOR 15 WK, Tumor Site: Type of Lesion: INTESTINES (JEJUNUM OR ILEUM), INTESTINES (COLON OR RECTUM), CECUM, DUODENUM, Tumor Site: Type of Lesion: INTESTINES (JEJUNUM OR ILEUM), INTESTINES (COLON OR RECTUM), CECUM, DUODENUM) was “active; positive”. For the same compound, the carcinogen call (Species: RAT, Strain/Sex: SPRAGUE-DAWLEY/MALE, Route: INTRAVENOUS, Dose: 25 MG/KG, SINGLE DOSE, Tumor Site: Type of Lesion: INTESTINES (JEJUNUM OR ILEUM), INTESTINES (COLON OR RECTUM)) was “active; positive”.
`c1ccc(Nc2ccc3ccccc3c2)cc1` was tested, and the carcinogen call (Species: MOUSE, Strain/Sex: B6C3F1/FEMALE, Route: ORAL, Dose: 0, 2500, 5000 PPM IN DIET FOR 103 WK (STUDY DURATION: 104 WK), Dose: 0, 2500, 5000 PPM IN DIET FOR 103 WK (STUDY DURATION: 104 WK), Tumor Site: Type of Lesion: KIDNEY: RENAL TUBULAR CELL ADENOMA, RENAL TUBULAR CELL ADENOCARCINOMA) was “equivocal”, the carcinogen call (Species: MOUSE, Strain/Sex: B6C3F1/MALE, Route: ORAL, Dose: 0, 2500, 5000 PPM IN DIET FOR 103 WK (STUDY DURATION: 104 WK), Dose: 0, 2500, 5000 PPM IN DIET FOR 103 WK (STUDY DURATION: 104 WK)) was “inactive; negative” and the carcinogen call (Species: RAT, Strain/Sex: F344/FEMALE, Route: ORAL, Dose: 0, 2500, 5000 PPM IN DIET FOR 103 WK (STUDY DURATION: 104 WK), Dose: 0, 2500, 5000 PPM IN DIET FOR 103 WK (STUDY DURATION: 104 WK)) was “inactive; negative”. The carcinogen call (Species: RAT, Strain/Sex: F344/MALE, Route: ORAL, Dose: 0, 2500, 5000 PPM IN DIET FOR 103 WK (STUDY DURATION: 104 WK), Dose: 0, 2500, 5000 PPM IN DIET FOR 103 WK (STUDY DURATION: 104 WK)) was “inactive; negative”, the carcinogen call (Species: RAT, Strain/Sex: SPRAGUE-DAWLEY/FEMALE, Route: GAVAGE, Dose: 0, 600 MG/KG BW 2/WK FOR DURATION OF STUDY (STUDY DURATION: LIFETIME)) was “inactive; negative” and the carcinogen call (Species: RAT, Strain/Sex: SPRAGUE-DAWLEY/MALE, Route: GAVAGE, Dose: 0, 600 MG/KG BW 2/WK FOR DURATION OF STUDY (STUDY DURATION: LIFETIME)) was “inactive; negative”.
With `Cc1cccc(Nc2cc(Cl)nc(SCC(=O)O)n2)c1C` the carcinogen call (Species: MOUSE, Strain/Sex: STRAIN-CS/MALE, Route: ORAL, Dose: 0.1% (W/W) IN DIET FOR 6 MO THEN 0.05% IN DIET FOR 8.5 MO, Tumor Site: Type of Lesion: LIVER: HEPATOCELLULAR CARCINOMA) was “active; positive”, the carcinogen call (Species: RAT, Strain/Sex: CD-1/MALE, Route: ORAL, Dose: 0, 50 PPM IN DIET FOR 43 WK FOLLOWED BY 25 PPM IN FEED FOR 61 WK (STUDY DURATION: 2 YR), Tumor Site: Type of Lesion: LIVER: ADENOMA, ADENOMA OR CARCINOMA, TESTES: LEYDIG CELL ADENOMA, PANCREAS: ACINAR CELL ADENOMA OR CARCINOMA, Tumor Site: Type of Lesion: LIVER: ADENOMA, ADENOMA OR CARCINOMA, TESTES: LEYDIG CELL ADENOMA, PANCREAS: ACINAR CELL ADENOMA OR CARCINOMA) was “active; positive” and the carcinogen call (Species: RAT, Strain/Sex: F344/MALE, Route: ORAL, Dose: 0, 0.05, 0.10% IN DIET STARTED AT 2 MO OF AGE FOR STUDY DURATION (STUDY DURATION: 22 WK), Dose: 0, 0.05, 0.10% IN DIET STARTED AT 2 MO OF AGE FOR STUDY DURATION (STUDY DURATION: 22 WK), Tumor Site: Type of Lesion: LIVER: HEPATOCELLULAR CARCINOMA, HEPATOCELLULAR ADENOMA) was “active; positive”. The carcinogen call (Species: RAT, Strain/Sex: F344/MALE, Route: ORAL, Dose: 0.00, 0.05, 0.10% IN DIET STARTED AT 15 MO OF AGE FOR STUDY DURATION (STUDY DURATION: 22 WK), Dose: 0.00, 0.05, 0.10% IN DIET STARTED AT 15 MO OF AGE FOR STUDY DURATION (STUDY DURATION: 22 WK), Tumor Site: Type of Lesion: LIVER: HEPATOCELLULAR CARCINOMA, HEPATOCELLULAR ADENOMA) was “active; positive”, the carcinogen call (Species: RAT, Strain/Sex: F344/MALE, Route: ORAL, Dose: 0, 0.1% IN DIET FOR 22 WK (STUDY DURATION: 22 WK)) was “inactive; negative” and the carcinogen call (Species: RAT, Strain/Sex: F344/MALE, Route: ORAL, Dose: 0, 0.1% IN DIET FOR 22 WK FOLLOWED BY BASAL DIET UNTIL TERMINATION AT 37, 52, OR 104 WK, RESPECTIVELY (STUDY DURATION: 3) was “inactive; negative”. For the same compound, the carcinogen call (Species: RAT, Strain/Sex: F344/MALE, Route: ORAL, Dose: 0, 0.1% IN DIET FOR 37 WK (STUDY DURATION: 37 WK), Tumor Site: Type of Lesion: LIVER: HEPATOCELLULAR ADENOMA) was “active; positive”, the carcinogen call (Species: RAT, Strain/Sex: F344/MALE, Route: ORAL, Dose: 0, 0.1% IN DIET FOR 37 WK FOLLOWED BY BASAL DIET UNTIL TERMINATION AT 52 OR 104 WK (STUDY DURATION: 52 OR 104 WK)) was “inactive; negative” and the carcinogen call (Species: RAT, Strain/Sex: F344/MALE, Route: ORAL, Dose: 0, 0.1% IN DIET FOR 52 WK (STUDY DURATION: 52 WK), Tumor Site: Type of Lesion: LIVER: HEPATOCELLULAR ADENOMA, HEPATOCELLULAR CARCINOMA) was “active; positive”. The carcinogen call (Species: RAT, Strain/Sex: F344/MALE, Route: ORAL, Dose: 0, 0.1% IN DIET FOR 52 WK FOLLOWED BY BASAL DIET UNTIL TERMINATION AT 104 WK (STUDY DURATION: 104 WK), Tumor Site: Type of Lesion: LIVER: HEPATOCELLULAR ADENOMA OR CARCINOMA) was “active; positive”, the carcinogen call (Species: RAT, Strain/Sex: F344/MALE, Route: ORAL, Dose: 0, 0.1% IN DIET FOR 78 WK (STUDY DURATION: 78 WK), Tumor Site: Type of Lesion: LIVER: NEOPLASM) was “active; positive” and the carcinogen call (Species: RAT, Strain/Sex: F344/MALE, Route: ORAL, Dose: 0.1% (W/W) IN DIET FOR 16 MO, Tumor Site: Type of Lesion: LIVER: HEPATOCELLULAR CARCINOMA) was “active; positive”. The carcinogen call (Species: RAT, Strain/Sex: F344/MALE, Route: ORAL, Dose: 0.1% IN DIET FOR 11 WK FOLLOWED BY CONTROL DIET FOR DURATION OF STUDY (STUDY DURATION: 56 WK)) was “inactive; negative”, the carcinogen call (Species: RAT, Strain/Sex: F344/MALE, Route: ORAL, Dose: 0.1% IN DIET FOR 43 WK (STUDY DURATION: 56 WK), Tumor Site: Type of Lesion: LIVER: HEPATOCELLULAR CARCINOMA) was “active; positive” and the carcinogen call (Species: RAT, Strain/Sex: F344/MALE, Route: ORAL, Dose: 0.1% IN DIET FOR 54 WK (STUDY DURATION: 56 WK), Tumor Site: Type of Lesion: LIVER: HEPATOCELLULAR CARCINOMA) was “active; positive”. For the same compound, the carcinogen call (Species: RAT, Strain/Sex: F344/MALE, Route: ORAL, Dose: 0.2% (W/W) IN DIET FOR 65 WK, Tumor Site: Type of Lesion: LIVER: HEPATOCELLULAR CARCINOMA) was “active; positive”.
